Measured values as given in patent US12083100B1, “Antiparasitic isoxazoline compounds, long-acting injectable formulations comprising them, methods and uses thereof” (BOEHRINGER INGELHEIM ANIMAL HEALTH USA INC., priority 2016, dated 2024).

Test system: Rhipicephalus microplus ticks
Assay: Efficacy of injectable formulation against Rhipicephalus (Boophilus) microplus ticks on cattle
Assay type: in vivo
Conditions: for Average % Efficacy (Tick Count): vs untreated control; for efficacy and duration of activity against Rhipicephalus microplus compared with other isoxazoline compounds / speed of onset of efficacy against Rhipicephalus microplus compared with other isoxazoline compounds: injectable composition, compared with afoxolaner, (If) or (S)-If
Method: The efficacy of long-acting injectable compositions of the invention comprising the compounds of formula (Ie) and (S)-Ie, against Rhipicephalus microplus ticks on cattle was determined against an untreated control group. The efficacy of compositions comprising the compounds (Ie) and (S)-e were also compared with injectable compositions comprising afoxolaner (formula Ia, 4-[5-[3-chloro-5-(trifluoromethyl)phenyl]-4,5-dihydro-5-(trifluoromethyl)-3-isoxazolyl]-N-[2-oxo-2-[(2,2,2-trifluoroethyl)amino]ethyl]-1-naphthalanecarboxamide), and comparative compounds of formulae (If) and (S)-If shown below.
Each compound was formulated in an injectable composition at a concentration of 10% (w/v) in a carrier comprising 8% (w/v) ethanol and Q.S. with polyethylene glycol 400. The racemic compounds afoxolaner and (If) were dosed at 1.0 mg/kg body weight and the (S)-enantiomers ((S)-Ie and (S)-If) were dosed at 0.5 mg/kg body weight. Six healthy head of cattle were used in each study group. Cattle in Group 1 were untreated (control). Cattle in Groups 2, 3, 4, 5 and 6 were treated on Day 0 subcutaneously with injectable compositions comprising the compounds of formula Ie, (S)-If, (S)-Ie, afoxolaner (Ia) and (If), respectively. Several weeks before treatment, cattle were infested three times a week with approximately 2500 Rhipicephalus microplus larvae to establish ongoing infestations. Each animal was challenged by infestation with approximately 5000 R. microplus larvae on Days 7 and 21 and every 14 days thereafter. Ticks dropping from each animal in the previous 24 hours were collected daily and counted from Day 1 until the end of the study.

[1] = Day 5, 1.0 mg/kg subcutaneous on Day 0 (racemic compounds)
[2] = Day 10, 1.0 mg/kg subcutaneous on Day 0 (racemic compounds)
[3] = Day 20, 1.0 mg/kg subcutaneous on Day 0 (racemic compounds)
[4] = Day 30, 1.0 mg/kg subcutaneous on Day 0 (racemic compounds)
[5] = Day 40, 1.0 mg/kg subcutaneous on Day 0 (racemic compounds)
[6] = Day 49, 1.0 mg/kg subcutaneous on Day 0 (racemic compounds)
[7] = Day 55, 1.0 mg/kg subcutaneous on Day 0 (racemic compounds)
[8] = Day 60, 1.0 mg/kg subcutaneous on Day 0 (racemic compounds)
[9] = Day 65, 1.0 mg/kg subcutaneous on Day 0 (racemic compounds)
[10] = Day 70, 1.0 mg/kg subcutaneous on Day 0 (racemic compounds)
[11] = Day 75, 1.0 mg/kg subcutaneous on Day 0 (racemic compounds)
[12] = listed as formula (Ic) wherein X^1 is chloro, X^2 is fluoro and X^3 is CF3
[13] = listed as formula (Id) in which Y is Y-2, Q is —C(O)NHCH2C(O)NHCH2CF3, X^1 is fluoro and X

Compound	Average % Efficacy (Tick Count) [1] [%]	Average % Efficacy (Tick Count) [2] [%]	Average % Efficacy (Tick Count) [3] [%]	Average % Efficacy (Tick Count) [4] [%]	Average % Efficacy (Tick Count) [5] [%]	Average % Efficacy (Tick Count) [6] [%]	Average % Efficacy (Tick Count) [7] [%]	Average % Efficacy (Tick Count) [8] [%]	Average % Efficacy (Tick Count) [9] [%]	Average % Efficacy (Tick Count) [10] [%]	Average % Efficacy (Tick Count) [11] [%]	further results
O=C(CNC(=O)c1ccc(C2=NOC(c3cc(Cl)c(F)c(C(F)(F)F)c3)(C(F)(F)F)C2)c2ccccc12)NCC(F)(F)F (racemic) [Ie]	69	100	100	100	100	100	100	100	100	100	100	Average % Efficacy (Tick Count) (Day 80, 1.0 mg/kg subcutaneous on Day 0 (racemic compounds)): 100%; Average % Efficacy (Tick Count) (Day 85, 1.0 mg/kg subcutaneous on Day 0 (racemic compounds)): 100%; Average % Efficacy (Tick Count) (Day 88, 1.0 mg/kg subcutaneous on Day 0 (racemic compounds)): 100%; Average % Efficacy (Tick Count) (Day 95, 1.0 mg/kg subcutaneous on Day 0 (racemic compounds)): 100%; Average % Efficacy (Tick Count) (Day 100, 1.0 mg/kg subcutaneous on Day 0 (racemic compounds)): 100%; Average % Efficacy (Tick Count) (Day 105, 1.0 mg/kg subcutaneous on Day 0 (racemic compounds)): 93%; Average % Efficacy (Tick Count) (Day 110, 1.0 mg/kg subcutaneous on Day 0 (racemic compounds)): 82%; efficacy and duration of activity against Rhipicephalus microplus compared with other isoxazoline compounds: surprising and unexpected efficacy; speed of onset of efficacy against Rhipicephalus microplus compared with other isoxazoline compounds (listed as Je): faster-acting; efficacy and duration of activity against Rhipicephalus microplus compared with other isoxazoline compounds [12]: surprisingly long-lasting and excellent efficacy; speed of onset of efficacy against Rhipicephalus microplus compared with other isoxazoline compounds [12]: quick onset; efficacy and duration of activity against Rhipicephalus microplus compared with other isoxazoline compounds [13]: surprisingly improved duration of activity; speed of onset of efficacy against Rhipicephalus microplus compared with other isoxazoline compounds [13]: surprisingly improved fast-acting efficacy
O=C(CNC(=O)c1ccc(C2=NOC(c3cc(Cl)cc(C(F)(F)F)c3)(C(F)(F)F)C2)c2ccccc12)NCC(F)(F)F (racemic) [afoxolaner, 4-[5-[3-chloro-5-(trifluoromethyl)phenyl]-4,5-dihydro-5-(trifluoromethyl)-3-isoxazolyl]-N-[2-oxo-2-[(2,2,2-trifluoroethyl)amino]ethyl]-1-naphthalanecarboxamide, reference compound]	38	48	77	99	100	94	73	71	48	3	0	
O=C(CNC(=O)c1ccc(C2=NOC(c3cc(Cl)cc(Cl)c3)(C(F)(F)F)C2)c2ccccc12)NCC(F)(F)F (stereo not shown) [If, reference compound]	70	62	57	84	100	70	14					
O=C(CNC(=O)c1ccc(C2=NO[C@@](c3cc(Cl)cc(Cl)c3)(C(F)(F)F)C2)c2ccccc12)NCC(F)(F)F [(S)-If, reference compound]												Average % Efficacy (Tick Count) (Day 5, 0.5 mg/kg subcutaneous on Day 0 ((S)-enantiomers)): 39%; Average % Efficacy (Tick Count) (Day 10, 0.5 mg/kg subcutaneous on Day 0 ((S)-enantiomers)): 27%; Average % Efficacy (Tick Count) (Day 20, 0.5 mg/kg subcutaneous on Day 0 ((S)-enantiomers)): 33%; Average % Efficacy (Tick Count) (Day 30, 0.5 mg/kg subcutaneous on Day 0 ((S)-enantiomers)): 86%; Average % Efficacy (Tick Count) (Day 40, 0.5 mg/kg subcutaneous on Day 0 ((S)-enantiomers)): 100%; Average % Efficacy (Tick Count) (Day 49, 0.5 mg/kg subcutaneous on Day 0 ((S)-enantiomers)): 36%; Average % Efficacy (Tick Count) (Day 55, 0.5 mg/kg subcutaneous on Day 0 ((S)-enantiomers)): 0%
